Data as given in patent US20240254103A9, “NOVEL PYRIMIDINE DERIVATIVE, AND COMPOSITION FOR PREVENTING OR TREATING NEURODEGENERATIVE DISEASES AND CANCER, COMPRISING SAME” (WHAN IN PHARMACEUTICAL CO., LTD., priority 2020, published 2024).

Assays:
mutant LRRK2 (G2019S) = target: T1, mutant LRRK2 (G2019S) (Homo sapiens, UniProt Q5S007, G2019S); assay: Inhibitory activity against LRRK2: competition binding to ligand-affinity beads, DNA-tagged kinase quantitated by qPCR; conditions: 100 nM compound; % of ctrl; read-out: Remaining kinase activity(%) at 100 nM LRRK2(G2019Smutant)
T1 construct: DNA tag for qPCR detection (not a peptide; the protein part that carries it is not described); made in house; host or cells: HEK 293 cells (the same paragraph also describes T7 phage grown in E. coli BL21)
Procedure, shortened: (§1)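 Human LRRK2 H970–E2527, wild type or G2019S, was expressed as DNA-tagged kinase (T7 phage in E. coli or HEK293) and competed for 1 h against a biotinylated ligand on streptavidin beads. Bound kinase was eluted with 0.5 µM free ligand and quantified by qPCR. Values are % of control at 100 nM (both forms) and at 10 and 50 nM (wild type).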

wild-type LRRK2 = target: T2, wild-type LRRK2 (Homo sapiens, UniProt Q5S007); assay: as above; conditions: 100 nM compound; % of ctrl; read-out: Remaining kinase activity(%) at 100 nM LRRK2(WT)
T2 construct: DNA tag for qPCR detection (not a peptide; the protein part that carries it is not described); made in house; host or cells: HEK 293 cells (the same paragraph also describes T7 phage grown in E. coli BL21)
Procedure, shortened: as §1

T2 sequence (Q5S007 970-2527): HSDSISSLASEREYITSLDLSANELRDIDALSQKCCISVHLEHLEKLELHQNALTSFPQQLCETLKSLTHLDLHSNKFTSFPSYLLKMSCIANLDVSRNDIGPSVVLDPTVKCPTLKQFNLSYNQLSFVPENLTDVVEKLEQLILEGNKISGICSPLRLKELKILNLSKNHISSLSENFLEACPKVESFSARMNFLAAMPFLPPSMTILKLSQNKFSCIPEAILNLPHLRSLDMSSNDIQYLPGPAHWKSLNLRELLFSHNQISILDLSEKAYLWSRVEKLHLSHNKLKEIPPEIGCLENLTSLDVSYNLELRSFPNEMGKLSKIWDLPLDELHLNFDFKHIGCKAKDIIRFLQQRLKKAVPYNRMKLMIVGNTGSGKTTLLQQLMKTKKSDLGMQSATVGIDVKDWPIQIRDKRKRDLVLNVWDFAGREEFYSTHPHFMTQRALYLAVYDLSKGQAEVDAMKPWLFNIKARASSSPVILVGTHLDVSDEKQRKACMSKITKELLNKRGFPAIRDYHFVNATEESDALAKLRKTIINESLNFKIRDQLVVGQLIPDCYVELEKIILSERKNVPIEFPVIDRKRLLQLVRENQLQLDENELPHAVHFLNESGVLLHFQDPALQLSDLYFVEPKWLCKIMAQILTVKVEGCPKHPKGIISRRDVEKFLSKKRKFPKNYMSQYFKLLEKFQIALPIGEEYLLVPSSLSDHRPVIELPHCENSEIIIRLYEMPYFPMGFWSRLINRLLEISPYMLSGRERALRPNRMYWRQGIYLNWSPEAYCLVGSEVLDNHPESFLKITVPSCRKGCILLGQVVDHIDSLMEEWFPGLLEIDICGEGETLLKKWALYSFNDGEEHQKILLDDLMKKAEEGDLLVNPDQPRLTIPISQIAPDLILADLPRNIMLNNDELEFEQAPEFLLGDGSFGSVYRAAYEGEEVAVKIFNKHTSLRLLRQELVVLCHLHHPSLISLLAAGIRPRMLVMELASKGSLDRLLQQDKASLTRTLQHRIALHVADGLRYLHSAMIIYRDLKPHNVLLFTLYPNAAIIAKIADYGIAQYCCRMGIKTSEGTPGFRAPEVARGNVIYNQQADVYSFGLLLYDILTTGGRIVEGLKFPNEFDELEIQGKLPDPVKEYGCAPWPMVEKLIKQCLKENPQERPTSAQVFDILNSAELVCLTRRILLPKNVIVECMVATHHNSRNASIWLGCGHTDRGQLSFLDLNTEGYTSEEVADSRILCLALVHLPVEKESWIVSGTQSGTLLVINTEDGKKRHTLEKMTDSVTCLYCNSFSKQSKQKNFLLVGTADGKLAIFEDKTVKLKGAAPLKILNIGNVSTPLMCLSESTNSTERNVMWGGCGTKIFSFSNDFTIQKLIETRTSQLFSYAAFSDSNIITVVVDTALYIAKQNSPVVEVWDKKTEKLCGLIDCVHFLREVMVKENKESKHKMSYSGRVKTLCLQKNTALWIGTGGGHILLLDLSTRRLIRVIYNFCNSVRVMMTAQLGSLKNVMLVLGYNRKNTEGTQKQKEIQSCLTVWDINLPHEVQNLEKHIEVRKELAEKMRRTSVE
T1 sequence (Q5S007 970-2527 G2019S): as the sequence (Q5S007 970-2527) above, with G1050S counted along it

remaining binding at 0.1 µM (mutant LRRK2 (G2019S)) | remaining binding at 0.1 µM (wild-type LRRK2) | Structure (SMILES)
< 30% | < 50% | COc1cc(C(=O)N2CCOCC2)ccc1Nc1ncc(C(F)(F)F)c(-c2cnn(C3CCOCC3)c2)n1 [Compound 29, (3-methoxy-4-((4-(1-(tetrahydro-2H-pyran-4-yl)-1H-pyrazol-4-yl)-5-(trifluoromethyl)pyrimidin-2-yl)amino)phenyl)(morpholino)methanone]
< 30% | < 10% | COc1cc(C(=O)N2CCC(N3CCN(C)CC3)CC2)ccc1Nc1ncc(C(F)(F)F)c(-c2cnn(C)c2)n1 [Compound 31, (3-methoxy-4-((4-(1-methyl-1H-pyrazol-4-yl)-5-(trifluoromethyl)pyrimidin-2-yl)amino)phenyl)(4-(4-methylpiperazin-1-yl)piperidin-1-yl)methanone]
< 30% | < 50% | COc1cc(C(=O)N2CCC3(CC2)COC3)ccc1Nc1ncc(Cl)c(-c2cnn(C)c2)n1 [Compound 32, (4-((5-chloro-4-(1-methyl-1H-pyrazol-4-yl)pyrimidin-2-yl)amino)-3-methoxyphenyl)(2-oxa-7-azaspiro[3.5]nonan-7-yl)methanone]
< 50% | < 30% | COc1cc(C(=O)N2CC3(CCO3)C2)ccc1Nc1ncc(Cl)c(-c2cnn(C)c2)n1 [Compound 33, (4-((5-chloro-4-(1-methyl-1H-pyrazol-4-yl)pyrimidin-2-yl)amino)-3-methoxyphenyl)(1-oxa-6-azaspiro[3.3]heptan-6-yl)methanone]
< 30% | < 10% | COc1cc(C(=O)N2CCN(C(C)C)CC2)ccc1Nc1ncc(Cl)c(-c2cnn(C)c2)n1 [Compound 34, (4-((5-chloro-4-(1-methyl-1H-pyrazol-4-yl)pyrimidin-2-yl)amino)-3-methoxyphenyl)(4-isopropylpiperazin-1-yl)methanone]
< 10% | < 30% | COc1cc(C(=O)N2CCC3(CC2)COC3)ccc1Nc1ncc(Cl)c(-c2cnn(C3CCOCC3)c2)n1 [Compound 35, (4-((5-chloro-4-(1-(tetrahydro-2H-pyran-4-yl)-1H-pyrazol-4-yl)pyrimidin-2-yl)amino)-3-methoxyphenyl)(2-oxa-7-azaspiro[3.5]nonan-7-yl)methanone]
< 10% | < 10% | COc1cc(C(=O)NC2CCN(C)CC2)ccc1Nc1ncc(Cl)c(-c2cnn(C)c2)n1 [Compound 38, 4-((5-chloro-4-(1-methyl-1H-pyrazol-4-yl)pyrimidin-2-yl)amino)-3-methoxy-N-(1-methylpiperidin-4-yl)benzamide]
< 50% | < 30% | COc1cc(C(=O)N2CCC(F)(F)CC2)ccc1Nc1ncc(Cl)c(-c2cnn(C)c2)n1 [Compound 41, (4-((5-chloro-4-(1-methyl-1H-pyrazol-4-yl)pyrimidin-2-yl)amino)-3-methoxyphenyl)(4,4-difluoropiperidin-1-yl)methanone]
< 50% | < 30% | COc1cc(C(=O)N2CCOC(C)(C)C2)ccc1Nc1ncc(Cl)c(-c2cnn(C)c2)n1 [Compound 42, (4-((5-chloro-4-(1-methyl-1H-pyrazol-4-yl)pyrimidin-2-yl)amino)-3-methoxyphenyl)(2,2-dimethylmorpholino)methanone]
< 30% | < 10% | COc1cc(C(=O)N2CC(N3CCOCC3)C2)ccc1Nc1ncc(Cl)c(-c2cnn(C)c2)n1 [Compound 43, (4-((5-chloro-4-(1-methyl-1H-pyrazol-4-yl)pyrimidin-2-yl)amino)-3-methoxyphenyl)(3-morpholinoazetidin-1-yl)methanone]
< 30% | < 10% | COc1cc(C(=O)N2CCN(C(C)=O)CC2)ccc1Nc1ncc(Cl)c(-c2cnn(C)c2)n1 [Compound 44, 1-(4-(4-((5-chloro-4-(1-methyl-1H-pyrazol-4-yl)pyrimidin-2-yl)amino)-3-methoxybenzoyl)piperazin-1-yl)ethan-1-one]
< 30% | < 30% | COc1cc(C(=O)N2CCN(C(C)C)CC2)ccc1Nc1ncc(C(F)(F)F)c(-c2cnn(C)c2)n1 [Compound 45, (4-isopropylpiperazin-1-yl)(3-methoxy-4-((4-(1-methyl-1H-pyrazol-4-yl)-5-(trifluoromethyl)pyrimidin-2-yl)amino)phenyl)methanone]
< 10% | < 10% | COc1cc(C(=O)N2CCOCC2)c(F)cc1Nc1ncc(C(F)(F)F)c(-c2cnn(C)c2)n1 [Compound 46, (2-fluoro-5-methoxy-4-((4-(1-methyl-1H-pyrazol-4-yl)-5-(trifluoromethyl)pyrimidin-2-yl)amino)phenyl)(morpholino)methanone]
< 10% | < 10% | COc1cc(C(=O)N2CCOCC2)c(F)cc1Nc1ncc(Cl)c(-c2cnn(C(C)C)c2)n1 [Compound 49, (4-((5-chloro-4-(1-isopropyl-1H-pyrazol-4-yl)pyrimidin-2-yl)amino)-2-fluoro-5-methoxyphenyl)(morpholino)methanone]
< 10% | < 10% | COc1cc(C(=O)N2CCN(C3COC3)CC2)ccc1Nc1ncc(Cl)c(-c2cnn(C)c2)n1 [Compound 50, (4-((5-chloro-4-(1-methyl-1H-pyrazol-4-yl)pyrimidin-2-yl)amino)-3-methoxyphenyl)(4-(oxetan-3-yl)piperazin-1-yl)methanone]
< 30% | < 30% | COc1cc(C(=O)N2C[C@H]3CC[C@@H](C2)O3)ccc1Nc1ncc(Cl)c(-c2cnn(C)c2)n1 [Compound 51, ((1R,5S)-8-oxa-3-azabicyclo[3.2.1]octan-3-yl)(4-((5-chloro-4-(1-methyl-1H-pyrazol-4-yl)pyrimidin-2-yl)amino)-3-methoxyphenyl)methanone]
< 30% | < 50% | COc1cc(C(=O)c2ccncc2)ccc1Nc1ncc(Cl)c(-c2cnn(C(C)C)c2)n1 [Compound 54, (4-((5-chloro-4-(1-isopropyl-1H-pyrazol-4-yl)pyrimidin-2-yl)amino)-3-methoxyphenyl)(pyridin-4-yl)methanone]
< 10% | < 10% | CCn1cc(-c2nc(Nc3ccc(C(=O)N4CCOCC4)cc3OC)ncc2Cl)cn1 [Compound 56, (4-((5-chloro-4-(1-ethyl-1H-pyrazol-4-yl)pyrimidin-2-yl)amino)-3-methoxyphenyl)(morpholino)methanone]
< 10% | < 10% | CCCn1cc(-c2nc(Nc3ccc(C(=O)N4CCOCC4)cc3OC)ncc2Cl)cn1 [Compound 57, (4-((5-chloro-4-(1-propyl-1H-pyrazol-4-yl)pyrimidin-2-yl)amino)-3-methoxyphenyl)(morpholino)methanone]
< 10% | < 30% | COc1cc(C(=O)N2CCOCC2)ccc1Nc1ncc(Cl)c(-c2cnn(C3CC3)c2)n1 [Compound 58, (4-((5-chloro-4-(1-cyclopropyl-1H-pyrazol-4-yl)pyrimidin-2-yl)amino)-3-methoxyphenyl)(morpholino)methanone]
